Assay results published in ChEMBL document CHEMBL2331193, “Structure-based fragment screening is demonstrated to be a practical lead discovery method for a representative G-protein-coupled receptor” (J Med Chem, 2013).
pKi: −log10 of the molar value.

Target: Beta-1 adrenergic receptor (Homo sapiens, UniProt P08588)
Assay: Binding affinity to beta1 adrenergic receptor (unknown origin)

Sequence of Beta-1 adrenergic receptor (P08588 whole entry): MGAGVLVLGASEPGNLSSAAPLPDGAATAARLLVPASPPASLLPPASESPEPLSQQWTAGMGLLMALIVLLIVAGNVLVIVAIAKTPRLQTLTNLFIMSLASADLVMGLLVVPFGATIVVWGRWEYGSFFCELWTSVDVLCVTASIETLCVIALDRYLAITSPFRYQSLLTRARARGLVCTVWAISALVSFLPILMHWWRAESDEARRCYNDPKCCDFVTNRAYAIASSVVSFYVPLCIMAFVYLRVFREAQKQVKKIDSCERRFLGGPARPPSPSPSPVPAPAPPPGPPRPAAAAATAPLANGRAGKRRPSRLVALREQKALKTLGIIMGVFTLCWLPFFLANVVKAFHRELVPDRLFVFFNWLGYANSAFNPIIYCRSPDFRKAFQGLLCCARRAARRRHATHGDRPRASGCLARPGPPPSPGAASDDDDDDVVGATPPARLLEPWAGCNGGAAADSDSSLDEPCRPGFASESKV

Cc1cc(N2CCNCC2)nc2ccccc12
pKi: 6.66
